In PubChem BioAssay (NCI):
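1) Cells in 96-well plates. 2) Compound, 48 h, 5 concentrations. 3) Linear interpolation between surrounding doses. 4) Unreached endpoint = highest concentration. The concentration for full growth arrest is given as TGI.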

How the values were obtained:
Assay in all cases: NCI-60 cell line screen, 48 h
[1] = test system: DLD-1 colon
[2] = test system: DMS 273 small cell lung
[3] = test system: KM20L2 colon
[4] = test system: LXFL 529 NSCLC
[5] = test system: M19-MEL melanoma
[6] = test system: SNB-78 CNS
[7] = test system: DMS 114 small cell lung
[8] = test system: HOP-18 NSCLC
[9] = test system: XF 498 CNS

Row | SMILES | TGI [1] [µM] | TGI [2] [µM] | TGI [3] [µM] | TGI [4] [µM] | TGI [5] [µM] | TGI [6] [µM] | TGI [7] [µM] | TGI [8] [µM] | TGI [9] [µM]
1 | NC(=O)N=C(N(Cc1ccccc1)Cc1ccccc1)N(Cc1ccccc1)Cc1ccccc1 | > 100 | > 100 | > 100 | > 100 | > 100 | > 100 |  |  | 
2 | CC1=C(C(=O)O)N2C(=O)[C@@H](NC(=O)C(c3ccc(O)cc3)N3CSC(=S)N(C(C)C)C3)C2SC1 (stereo partly drawn) | > 100 | > 100 | > 100 | > 100 | > 100 | > 100 | > 100 | > 100 | > 100
3 | ONc1ncnc2nc[nH]c12 | > 100 | > 100 | > 100 | > 100 | > 100 |  | > 100 |  | > 100
4 | Cc1c(/C=N/NC(=O)c2cc(Br)cc(Br)c2O)c(=O)n(-c2ccccc2)n1C | > 100 | > 100 | > 100 | > 100 | > 100 | > 100 | 88.8 |  | 37.9
5 | COc1cc(Cn2c3ccccc3c3cc(C)c4c(c32)C=CC(C)(CCC=C(C)C)O4)cc2c1[nH]c1ccccc12 (stereo not drawn) | > 100 | > 100 | > 100 | > 100 | > 100 | > 100 | > 100 | > 100 | 
